From PubChem BioAssay (NCI)
Several values for one entry are separate records, joined by “and”; a condition that tells them apart may be missing. Equal entries are not always repeated.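 Exposure lasted 48 hours, with cells grown in 96-well plates and compounds tested at five concentrations. GI50 marks 50% less growth. TGI marks complete inhibition of growth.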

Key:
Assay in all cases: NCI-60 cell line screen, 48 h
[1] = test system: HOP-92 NSCLC
[2] = test system: HT29 colon
[3] = test system: SR leukemia
[4] = test system: U251 CNS
[5] = test system: SF-539 CNS
[6] = test system: SK-MEL-28 melanoma
[7] = test system: NCI/ADR-RES ovarian
[8] = test system: OVCAR-4 ovarian
[9] = test system: BT-549 breast
[10] = test system: OVCAR-3 ovarian
[11] = test system: PC-3 prostate
[12] = test system: SNB-19 CNS
[13] = test system: RPMI-8226 leukemia
[14] = test system: T-47D breast
[15] = test system: 786-0 renal
[16] = test system: ACHN renal
[17] = test system: M14 melanoma
[18] = test system: RXF 393 renal
[19] = test system: CCRF-CEM leukemia
[20] = test system: HCT-116 colon
[21] = test system: NCI-H460 lung
[22] = test system: A549 NSCLC
[23] = test system: HL-60(TB) leukemia
[24] = test system: HOP-62 NSCLC
[25] = test system: SF-268 CNS
[26] = test system: MOLT-4 leukemia
[27] = test system: IGROV1 ovarian
[28] = test system: UACC-62 melanoma
[29] = test system: NCI-H226 lung
[30] = test system: MALME-3M melanoma
[31] = test system: CAKI-1 renal
[32] = test system: SK-MEL-2 melanoma
[33] = test system: EKVX NSCLC
[34] = test system: HCC-2998 colon
[35] = test system: TK-10 renal
[36] = test system: NCI-H23 lung
[37] = test system: COLO 205 colon
[38] = test system: SF-295 CNS
[39] = test system: HS 578T breast
[40] = test system: HCT-15 colon
[41] = test system: SN12C renal
[42] = test system: SK-MEL-5 melanoma
[43] = test system: A498 renal
[44] = test system: SK-OV-3 ovarian
[45] = test system: LOX IMVI melanoma
[46] = test system: MDA-MB-231 breast
[47] = test system: NCI-H522 lung
[48] = test system: K-562 leukemia
[49] = test system: OVCAR-5 ovarian
[50] = test system: MCF7 breast
[51] = test system: DU-145 prostate
[52] = test system: UO-31 renal
[53] = test system: KM12 colon
[54] = test system: SW-620 colon
[55] = test system: OVCAR-8 ovarian
[56] = test system: UACC-257 melanoma
[57] = test system: SNB-75 CNS
[58] = test system: MDA-MB-435
[59] = test system: MDA-N

CNS(=O)(=O)Nc1nccc(Cc2c(C)c3ccc(Oc4ncccn4)cc3oc2=O)c1F
GI50 [1]: < 0.0152 µM and 0.0613 µM
TGI [1]: 0.406 µM and 1.93 µM
GI50 [2]: 0.0278 µM and 0.0231 µM
TGI [2]: > 100 µM
GI50 [3]: > 100 µM
TGI [3]: > 100 µM
GI50 [4]: 17.4 µM and > 10 µM
TGI [4]: > 100 µM
GI50 [5]: 61.5 µM and > 10 µM
TGI [5]: > 100 µM
GI50 [6]: 0.0234 µM and 0.00549 µM
GI50 [7]: 20.2 µM and > 10 µM
TGI [7]: > 100 µM
GI50 [8]: 4.33 µM and > 5.62 µM
TGI [8]: > 100 µM
GI50 [9]: 24.2 µM and > 10 µM
TGI [9]: > 100 µM
GI50 [10]: 24.5 µM and > 10 µM
TGI [10]: > 100 µM
GI50 [11]: > 100 µM
TGI [11]: > 100 µM
GI50 [12]: > 48.4 µM
TGI [12]: > 100 µM
GI50 [13]: 12.3 µM and > 9.21 µM
TGI [13]: > 100 µM
GI50 [14]: 16.1 µM and > 10 µM
TGI [14]: > 100 µM
GI50 [15]: > 85.9 µM
TGI [15]: > 100 µM
GI50 [16]: 4.92 µM and > 2.21 µM
TGI [16]: > 100 µM
GI50 [17]: 0.0116 µM and 0.0113 µM
TGI [17]: 1.63 µM and > 10 µM
GI50 [18]: 4.99 µM and 3.02 µM
TGI [18]: > 100 µM
GI50 [19]: > 100 µM
TGI [19]: > 100 µM
GI50 [20]: 0.07 µM and 0.103 µM
TGI [20]: > 100 µM
GI50 [21]: > 62 µM
TGI [21]: > 100 µM
GI50 [22]: 0.674 µM and 1.08 µM
TGI [22]: > 100 µM
GI50 [23]: 0.0449 µM and 0.00891 µM
TGI [23]: > 100 µM
TGI [24]: > 100 µM
GI50 [25]: > 86 µM
TGI [25]: > 100 µM
GI50 [26]: 53.4 µM and > 10 µM
TGI [26]: > 100 µM
GI50 [27]: 0.938 µM and 0.0955 µM
TGI [27]: > 100 µM
GI50 [28]: < 0.0105 µM and 0.00277 µM
TGI [28]: 0.0941 µM
GI50 [29]: 6.82 µM and > 10 µM
TGI [29]: > 100 µM
GI50 [30]: < 0.01 µM and 0.00211 µM
TGI [30]: 0.0401 µM and 0.0217 µM
GI50 [31]: 1.34 µM
TGI [31]: > 100 µM
GI50 [32]: < 0.01 µM and 0.00879 µM
TGI [32]: > 100 µM
GI50 [33]: 0.438 µM and 0.351 µM
TGI [33]: > 100 µM
GI50 [34]: 0.0209 µM and 0.00869 µM
TGI [34]: > 10 µM
GI50 [35]: 0.184 µM and 0.0841 µM
TGI [35]: > 100 µM
GI50 [36]: 0.061 µM and 0.148 µM
TGI [36]: > 100 µM
GI50 [37]: 0.0176 µM and 0.00703 µM
TGI [37]: > 100 µM
GI50 [38]: 27.8 µM and > 10 µM
TGI [38]: > 100 µM
GI50 [39]: > 100 µM
TGI [39]: > 100 µM
GI50 [40]: > 25.7 µM
TGI [40]: > 100 µM
GI50 [41]: 13.1 µM and > 8.08 µM
TGI [41]: > 100 µM
GI50 [42]: 0.153 µM and 0.926 µM
TGI [42]: 17.4 µM and > 10 µM
GI50 [43]: 0.0424 µM and 0.0459 µM
TGI [43]: 1.38 µM and 0.531 µM
TGI [44]: > 100 µM
GI50 [45]: 0.356 µM and 0.977 µM
TGI [45]: > 100 µM
GI50 [46]: 0.549 µM and 0.313 µM
TGI [46]: > 100 µM
GI50 [47]: 22.3 µM and > 10 µM
TGI [47]: > 100 µM
GI50 [48]: 2.21 µM and 1.62 µM
TGI [48]: > 100 µM
GI50 [49]: 0.0223 µM and 0.0145 µM
TGI [49]: > 100 µM
GI50 [50]: 57 µM and > 10 µM
TGI [50]: > 100 µM
GI50 [51]: 39 µM and > 10 µM
TGI [51]: > 100 µM
TGI [52]: > 100 µM
GI50 [53]: 0.467 µM and 0.367 µM
TGI [53]: > 100 µM
GI50 [54]: 0.0194 µM and 0.0159 µM
TGI [54]: > 100 µM
GI50 [55]: 33.8 µM and > 10 µM
TGI [55]: > 100 µM
GI50 [56]: 0.0153 µM and 0.0116 µM
TGI [56]: 0.0866 µM and 0.0784 µM
GI50 [57]: > 58.9 µM
TGI [57]: > 100 µM
GI50 [58]: 0.0526 µM and 0.0395 µM
TGI [58]: > 100 µM

NC1=C(c2nc(-c3ccccc3)cs2)C(c2ccco2)c2c(c3ccccc3oc2=O)O1 (stereo unspecified)
TGI [1]: > 100 µM
TGI [2]: > 100 µM
TGI [59]: > 100 µM
TGI [3]: > 100 µM
TGI [4]: > 100 µM
TGI [5]: > 100 µM
TGI [6]: > 100 µM
TGI [7]: > 100 µM
TGI [8]: > 100 µM
TGI [9]: > 100 µM
TGI [10]: > 100 µM
TGI [11]: > 100 µM
TGI [12]: > 100 µM
TGI [15]: > 100 µM
TGI [16]: > 100 µM
TGI [17]: > 100 µM
TGI [18]: > 100 µM
TGI [19]: > 100 µM
TGI [20]: > 100 µM
TGI [21]: > 100 µM
TGI [22]: > 100 µM
TGI [23]: > 100 µM
TGI [24]: > 100 µM
TGI [25]: > 100 µM
TGI [27]: > 100 µM
TGI [28]: > 100 µM
TGI [29]: > 100 µM
TGI [30]: > 100 µM
TGI [31]: > 100 µM
TGI [32]: > 100 µM
TGI [33]: > 100 µM
TGI [34]: > 100 µM
TGI [35]: > 100 µM
TGI [36]: > 100 µM
TGI [37]: > 100 µM
TGI [38]: > 100 µM
TGI [39]: > 100 µM
TGI [40]: > 100 µM
TGI [41]: > 100 µM
TGI [42]: > 100 µM
TGI [43]: > 100 µM
TGI [44]: > 100 µM
TGI [45]: > 100 µM
TGI [46]: > 100 µM
TGI [47]: > 100 µM
TGI [48]: > 100 µM
TGI [49]: > 100 µM
TGI [50]: > 100 µM
TGI [51]: > 100 µM
TGI [52]: > 100 µM
TGI [54]: > 100 µM
TGI [55]: > 100 µM
TGI [56]: > 100 µM
TGI [57]: > 100 µM
TGI [58]: > 100 µM

CC(=O)n1c2ccc(Br)cc2c2nc3ccccc3nc21
TGI [1]: > 100 µM
TGI [2]: > 100 µM
TGI [59]: > 100 µM
TGI [3]: > 100 µM
TGI [4]: > 100 µM
TGI [5]: > 100 µM
TGI [6]: > 100 µM
TGI [7]: > 100 µM
TGI [8]: > 100 µM
TGI [9]: > 100 µM
TGI [10]: > 100 µM
TGI [11]: > 100 µM
TGI [12]: > 100 µM
TGI [13]: > 100 µM
TGI [15]: > 100 µM
TGI [16]: > 100 µM
TGI [17]: > 100 µM
TGI [18]: > 100 µM
TGI [19]: > 100 µM
TGI [20]: > 100 µM
TGI [21]: > 100 µM
TGI [23]: > 100 µM
TGI [24]: > 100 µM
TGI [25]: > 100 µM
TGI [26]: > 100 µM
TGI [27]: > 100 µM
TGI [28]: > 100 µM
TGI [29]: > 100 µM
TGI [30]: > 100 µM
TGI [31]: > 100 µM
TGI [32]: > 100 µM
TGI [33]: > 100 µM
TGI [34]: > 100 µM
TGI [35]: > 100 µM
TGI [36]: > 100 µM
TGI [37]: > 100 µM
TGI [38]: > 100 µM
TGI [40]: > 100 µM
TGI [41]: > 100 µM
TGI [42]: > 100 µM
TGI [45]: > 100 µM
TGI [46]: > 100 µM
TGI [47]: > 100 µM
TGI [48]: > 100 µM
TGI [49]: > 100 µM
TGI [50]: > 100 µM
TGI [51]: > 100 µM
TGI [52]: > 100 µM
TGI [53]: > 100 µM
TGI [54]: > 100 µM
TGI [55]: > 100 µM
TGI [56]: > 100 µM
TGI [57]: > 100 µM
TGI [58]: > 100 µM
